The supplement of paper PMC10883282
± gives the standard deviation of the averaged measurements.

Key:
Test in all cases: relative viability vs DMSO control (72 h) (fraction); higher = more viable cells
SK-LMS-1 = system: SK-LMS-1
In short: (§1)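 Sarcoma cell lines were seeded in 384-well plates at densities chosen for 80–90% confluence, then 24 h later given 2.5 µl of serially diluted compound drawn from source plates spanning 10 mM to 0.0002 mM. They were held 72 h at 37 °C, 5% CO2, with 0.1% DMSO vehicle and a 5 µM positive control included. Relative viability was read with ATPLite as percent growth and averaged over up to triplicate wells. Rescaling placed full at 1 and none at 0.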

G401 = system: G401
In short: as §1

RD-ES = system: RD-ES
In short: as §1

KHOS-NP = system: KHOS-NP
In short: as §1

SW872 = system: SW872
In short: as §1

MES-SA = system: MES-SA
In short: as §1

COc1cc(CCc2cc(NC(=O)c3ccc(N4CC(C)NC(C)C4)cc3)n[nH]2)cc(OC)c1 (stereo unspecified) [AZD-4547]
relative viability
Conditions	G401	KHOS-NP	MES-SA	RD-ES	SK-LMS-1	SW872
0.00017 µM	1 ± 0.053	1.079 ± 0.0041	0.886 ± 0.052	0.946 ± 0.023	0.9811 ± 0.0063	1.05 ± 0.033
0.00051 µM	0.999 ± 0.042	1.1 ± 0.027	0.888 ± 0.042	0.96 ± 0.02	0.953 ± 0.04	1 ± 0.025
0.00152 µM	0.964 ± 0.06	1.07 ± 0.011	0.92 ± 0.05	0.959 ± 0.016	0.944 ± 0.013	1 ± 0.038
0.00457 µM	0.976 ± 0.016	1.08 ± 0.013	0.921 ± 0.015	0.961 ± 0.03	0.993 ± 0.042	0.991 ± 0.042
0.01372 µM	0.9 ± 0.052	1.048 ± 0.0065	0.894 ± 0.027	0.95 ± 0.023	0.938 ± 0.044	0.987 ± 0.041
0.04115 µM	0.845 ± 0.047	1.03 ± 0.035	0.89 ± 0.045	0.9048 ± 0.0084	0.991 ± 0.017	0.976 ± 0.045
0.1235 µM	0.706 ± 0.033	1.03 ± 0.015	0.789 ± 0.015	0.89 ± 0.03	0.954 ± 0.021	0.963 ± 0.023
0.3704 µM	0.589 ± 0.0072	1.01 ± 0.013	0.708 ± 0.012	0.871 ± 0.043	0.9652 ± 0.0074	0.954 ± 0.067
1.111 µM	0.486 ± 0.061	1.02 ± 0.015	0.655 ± 0.017	0.808 ± 0.026	0.986 ± 0.023	0.926 ± 0.066
3.333 µM	0.356 ± 0.059	1 ± 0.037	0.554 ± 0.02	0.6084 ± 0.002	0.965 ± 0.046	0.725 ± 0.047
10 µM	0.136 ± 0.013	0.927 ± 0.013	0.266 ± 0.01	0.173 ± 0.0089	0.645 ± 0.023	0.465 ± 0.025
